Legend:
[1] = system: advanced metastatic breast cancer; settings: monotherapy or combined with chemotherapies; ref Ebos & Kerbel, 2011; Mackey et al, 2012; cited from earlier work
Excerpt: These clinical results were recently replicated in a preclinical model of postsurgical advanced MBC (Guerin et al, [2013]). As discussed previously (Guerin et al, [2013]), primary and secondary tumors may have divergent responses to anti-angiogenic ...

[2] = system: HT29luc metastases in YFP-SCID mice; test: experimental HT29luc liver/lymphatic metastasis model (IV); format: in vivo, human HT29luc cells in YFP-SCID mice; settings: VT vs PBS; Fig3A–D; 35DPI imaging
Excerpt: Figure 3 Vasculotide has no effect on experimental liver metastases from a colon cancer cell line (HT29^luc), nor on experimental lung metastases from a renal cancer cell line (SN12^luc) • A–D An experiment where HT29^luc tumor cells were implanted intravenously into YFP-SCID mice. (A) Kaplan–Meier survival analysis. (B) Quantification of total metastatic burden in the liver and lymphatics, at 35 days post-implantation (DPI), from whole-body bioluminescent imaging (C). (D) Photograph of typical liver metastases. • E–G An experiment where SN12^luc tumor cells were implanted intravenously into YFP-SCID mice. (E) Kaplan–Meier survival analysis. (F) Quantification of total metastatic burden at 50DPI, mostly within the lungs, from whole-body bioluminescent imaging (G). […]
For in vivo BI: Mice were injected intraperitoneally with 150mg/kg luciferin (Promega) 10 minutes prior to and anesthetized with isofluorane just before luminescent pseudocolor imaging (uniform settings: CCD camera locked at -105 °C, exposure=60s, f/1, subject size=1.5cm, bin=8, FOV=23.2cm, full image correction) using the IVIS 200 Imaging System (Caliper/PerkinElmer). Using the Living Image software (v2.50.1, Xenogen), weekly images were analyzed under uniform color range on grayscale photographic overlay. […]

[3] = system: in vivo model of abdominal sepsis; settings: ref Kumpers et al, 2011; cited from earlier work
Excerpt: (§1) For therapeutic use, recombinant variants or mimetics of multimeric Ang1 have been engineered, including Ang1* and Ang-F1-Fc-F1/Bow-Ang1 (Davis et al, [2003]; Daly et al, [2013]), MAT-Ang1 and COMP-Ang1 (Cho et al, [2004]; Koh, [2013]). […] The development of VT was inspired by a 2004 paper, where several heptapeptides—with no sequence homology to Ang1—were identified to have Tie2-binding potential through an ...

[4] = system: mouse model of skin toxicity from cancer radiotherapy; settings: ref Korpela et al, 2014; cited from earlier work
Excerpt: as §1

Tie2 = settings: PEGylated VT, earlier reports; ref not printed at the statement; cited from earlier work
Excerpt: as §1

[5] = system: lung vascular hyperpermeability in endotoxemic mice; settings: ref David et al, 2011; cited from earlier work
Excerpt: as §1

Row | Compound | phase III clinical trial outcome [1] | survival, metastatic burden (IVBI) and liver-specific metastases [2] | intraperitoneal leukocyte influx [3] | wound healing [4] | Tie2 phosphorylation (Tie2) | inflammatory induction of lung vascular hyperpermeability [5]
1 | CCN(CC)CCNC(=O)c1c(C)[nH]c(/C=C2\C(=O)Nc3ccc(F)cc32)c1C [sunitinib, reference compound] | repeatedly failed in multiple phase III clinical trials | – | – | – | – | –
2 | CHHHRHSF [Vasculotide, 4-armed maleimide-functionalized polyethylene glycol (PEG) backbone to link together four cysteine-capped T7 peptides, that is, CHHHRHSF] | – | No significant differences | reduced intraperitoneal leukocyte influx | promoted wound healing | reportedly activates Tie2 phosphorylation | prevented inflammatory induction of lung vascular hyperpermeability
